# Biological target: Protein kinase C alpha type (Homo sapiens, UniProt P17252)
# Assay: Displacement of [20-3H]-phorbol 12,13-dibutyrate (PDBU) from PKCalpha (C1b domain)
row,Ki,SMILES
1,7.58 µM,CCCCCCCCCCCCC/C=C1/COC(CO)(COC(C)=O)C1 (stereo not drawn)
2,4.98 µM,CCCCCCCCCCCCC/C=C1\CC(CO)(COCC)OC1=O (stereo not drawn)
3,7.46 µM,CCCCCCCCCCCCC/C=C1/CC(CO)(COCC)OC1=O (stereo not drawn)
